From US9403916B2, “Polysaccharide-and polypeptide-based block copolymers, vesicles constituted by these copolymers and use thereof” (priority 2008, dated 2016)

How the values were obtained:
[1] = tested on: cells of rat glioma C6; test: Cellular viability (toxicity) MTT test; format: cell-based; conditions: 48 h, read-out: IC50 (concentration for which half of the cells remain viable)
Protocol: Experiments of toxicity and release in vitro were performed using vesicles based on hyaluronic acid-block-poly(γ-benzyl L-glutamate) diblock copolymer prepared in Example 6, containing 11% of doxorubicin. The in-vitro experiments were performed on cells of rat glioma C6, in Dulbecco's modified Eagle's medium (DMEM) containing 5% of foetal calf serum. The C6 cells (5×10^5 cells) are placed in bottles of 10 cm diameter and are grown in 10 ml of culture medium containing penicillin (10000 μg/mL), streptomycin (10000 μg/mL) and amphotericin B (25 μg/mL) [Invitrogen Corporation] in an incubator at 37° C. in a controlled atmosphere with 5% CO2. For the tests of cellular viability (or toxicity), C6 cells were incubated in a 24-well plate (15×10^4 cells per well), for 24 h. Viability was determined by a conventional test with tetrazolium salt MTT (3-(4,5-dimethylthiazol-2-yl)-2,5-diphenyl tetrazolium bromide). The tetrazolium that it contains is reduced to formazan by the mitochondrial succinate dehydrogenase of the active living cells. The colour of the medium then changes from yellow to purplish-blue. The intensity of this coloration is proportional to the number of living cells present during the test. Analysis is performed by spectrophotometry (U-2800A, HITACHI), measuring the absorbance at 570 nm. […]

[2] = tested on: DMBA-induced tumour in female Sprague-Dawley rats; test: Antitumour efficacy in DMBA-induced tumour, tumour regression and survival; format: in vivo; conditions: rat, single intravenous dose 5 mg/kg doxorubicin
Protocol: Female Sprague-Dawley rats aged 8 weeks (120-140 g) were used in a study of tumour regression.
7,12-dimethylbenz[α]anthracene (DMBA) was administered orally (in soya oil) to the animals in 3 doses of 45 mg/kg at one-week intervals, to generate the tumour.
The treatment with doxorubicin was given 10 weeks after the last dose of DMBA. The width of the tumour (w) and its length (l) were recorded with callipers and the size of the tumour was calculated from the formula (w×l^2/2).
After 10 weeks from tumour induction, the animals with tumours were separated and divided randomly into different treatment groups, then treated with a single dose of 250 μl of doxorubicin by intravenous route at 5 mg/kg, either in the form of free doxorubicin, or in the form of doxorubicin encapsulated in the micellar vesicles of Example 6.
The control group received a single dose of 250 μl of PBS buffer (pH 7.4) by the intravenous route.
The study was terminated […] after treatment.
Observation of the survival of the animals with a tumour, which were treated, was continued until 60 days after treatment.

COc1cccc2c1C(=O)c1c(O)c3c(c(O)c1C2=O)C[C@@](O)(C(=O)CO)C[C@@H]3O[C@H]1C[C@H](N)[C@H](O)[C@H](C)O1 [free doxorubicin, doxorubicin]
IC50 [1]: 840 nM | tumour growth in comparison with control group treated with PBS [2]: significantly inhibit tumour growth | tumour regression after 15 days of treatment [2]: regression reaches a plateau
